Common to all, as to assay: DTP human tumour cell line panel, 48 h
For test [1], the system named is ACHN renal.
Test [2] concerns MALME-3M melanoma.
The subject of test [3] is OVCAR-3 ovarian.
The test system of test [4] is NCI-H522 lung.
Test [5] has as its system M14 melanoma.
For test [6], the system named is SF-539 CNS.
The test system of test [7] is SN12C renal.
The subject of test [8] is TK-10 renal.

Molecules are shown by their SMILES.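 Following 48 hours of exposure in 96-well plates, responses at five concentrations were used to interpolate endpoints linearly. GI50 = concentration required for 50% inhibition of growth. TGI: total growth inhibition.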

For `COc1ccc(-n2cc(-c3cc(OC)c(OC)c(OC)c3)c(C(=O)C(F)(F)F)c2C)cc1`, the GI50 was 54.6 µM in test [1]; greater than 100 µM in test [2]; 24.9 µM in test [3]; 20 µM in test [4]; greater than 100 µM in test [5]; greater than 100 µM in test [6]. The GI50 in test [7] is 28.6 µM; in test [8], 35.7 µM. The TGI in test [1], in test [2], in test [3], in test [4], in test [5] and in test [6] was greater than 100 µM each time. For the same compound, the TGI in test [7] and in test [8] was greater than 100 µM throughout.

Turning to `CS(=O)(=O)Nc1ccc2c(c1)oc(=O)c1ccccc12`, the TGI in test [1], in test [2], in test [3], in test [4], in test [5] and in test [6] was greater than 100 µM each time. The same compound showed a TGI in test [7] greater than 100 µM.

With `CCN(CC)CCOc1ccc(-c2nc3cc(Cl)ccc3s2)cc1`, the GI50 in test [1] was 1.58 µM; in test [2] it was 1.45 µM; in test [4], 1.8 µM; in test [5] it was 1.73 µM; in test [6] it was 1.6 µM; in test [7], 2.04 µM. In addition, in test [8], the GI50 is 1.31 µM. Further, the TGI in test [1] is 2.94 µM; in test [2] it was 2.8 µM; in test [4], 3.53 µM; in test [5], 3.21 µM; in test [6] it was 2.94 µM; in test [7], 4.79 µM. The TGI in test [8] was determined as 2.61 µM.

Consider `COc1cc(N(CCC#N)CCC#N)ccc1/C(N=Nc1ccc([N+](=O)[O-])cc1)=N/NC(=O)c1cc(Br)ccc1O`, for which the GI50 in test [1] is 39.6 µg/mL; in test [2], 44.2 µg/mL; in test [3], 30.9 µg/mL; in test [4], 53.4 µg/mL; in test [5], 44.5 µg/mL; in test [6], 33.2 µg/mL. The GI50 in test [7] is 53.4 µg/mL. Besides, the TGI was 131 µg/mL in test [1]; 96.1 µg/mL in test [2]; 76.2 µg/mL in test [3]; greater than 150 µg/mL in test [4]; 148 µg/mL in test [5]; 122 µg/mL in test [6]. For the same compound, the TGI in test [7] was greater than 150 µg/mL.

As to `CCN1CCN(C(c2ccc(C(F)(F)F)cc2)c2ccc3cccnc3c2O)CC1` (centres undefined), the GI50 was 3.04 µM in test [1]; 3.72 µM in test [2]; 3.47 µM in test [3]; 5.01 µM in test [4]; 1.7 µM in test [5]; 1.68 µM in test [6]. In addition, the GI50 is 2.27 µM in test [7] and 10 µM in test [8]. In addition, the TGI in test [1] was determined as 11.2 µM; in test [2] it was 15.4 µM; in test [3], 15.4 µM; in test [4], 18 µM; in test [5], 5.87 µM; in test [6] it was 10.1 µM. The results for the TGI in test [7] and in test [8] were 15.3 µM and 22 µM, respectively.

Regarding `Cn1c2ccccc2c2c3c(c4c5cc(Br)ccc5n(C)c4c21)C(=O)N(O)C3=O`, the GI50 in test [1] was 0.0346 µM; in test [2], 0.494 µM; in test [4] it was 0.167 µM; in test [6], 0.0403 µM; in test [8], 27.7 µM. Besides, the TGI in test [1] is 0.124 µM; in test [2] it was greater than 100 µM; in test [4], greater than 100 µM; in test [6] it was 0.323 µM; in test [8], greater than 100 µM.

With `CC(C)=CC/C=C(/C)[C@H]1CC[C@]2(C)[C@@H]1CC[C@@H]1[C@@]3(C)CCCNC(C)(C)[C@@H]3CC[C@]12C`, the GI50 was 3.37 µM in test [1]; 1.97 µM in test [2]; 2.08 µM in test [3]; 1.98 µM in test [4]; 3.46 µM in test [5]; 2.85 µM in test [6]. For the same compound, the GI50 in test [7] is 2.3 µM; in test [8], 10.6 µM. The TGI in test [1] was 12.4 µM; in test [2], 4.69 µM; in test [3], 4.28 µM; in test [4], 4.48 µM; in test [5] it was 13.8 µM; in test [6], 9.13 µM. Also, the TGI in test [7] came out at 5.45 µM; in test [8], 27 µM.

Take `O=C(OC(CNc1cc(=O)n(Cc2ccccc2)c(=O)n1Cc1ccccc1)CN1CCCC1)c1ccccc1` (centres undefined): the GI50 in test [1], in test [2], in test [3], in test [4], in test [5] and in test [6] was greater than 100 µM throughout. For the same compound, the GI50 in test [7] and in test [8] was greater than 100 µM in each case. Further, the TGI in test [1], in test [2], in test [3], in test [4], in test [5] and in test [6] was greater than 100 µM in each case. Further, the TGI in test [7] and in test [8] was greater than 100 µM throughout.

Take `CN1CCN(CCOc2ccc(-c3cnc4c(-c5ccccc5F)cnn4c3)cc2)CC1`: the GI50 in test [1] was 1.61 µM; in test [2], 1.56 µM; in test [3] it was 1.81 µM; in test [4], 1.69 µM; in test [5], 1.82 µM; in test [6], 1.59 µM. Further, the GI50 is 1.78 µM in test [7] and 2.09 µM in test [8]. In addition, the TGI in test [1] amounted to 2.96 µM; in test [2] it was 2.95 µM; in test [3], 4.02 µM; in test [4], 3.39 µM; in test [5] it was 3.52 µM; in test [6], 2.96 µM. For the same compound, the TGI in test [7] was determined as 3.6 µM; in test [8], 3.9 µM.

`COc1cc(C2CC(c3cccc(Br)c3)=NN2C(C)=O)cc(OC)c1OC` (centres undefined): the GI50 in test [1] was 0.71 µM; in test [3] it was 0.158 µM; in test [4], 0.286 µM; in test [5], 0.555 µM; in test [6] it was 0.265 µM; in test [7] it was 2.76 µM. Also, in test [8], the GI50 was 16.5 µM. The TGI was greater than 84.4 µM in test [1]; 0.61 µM in test [3]; 4.47 µM in test [4]; 50.2 µM in test [5]; 2.62 µM in test [6]; greater than 81.4 µM in test [7]. The compound further showed a TGI in test [8] of 72.2 µM.

Regarding `O=C(Nc1nc2ccc(C(F)(F)F)cc2s1)c1cc(Cl)ccc1O`, the GI50 was 0.894 µM in test [1]; 0.626 µM in test [2]; 0.422 µM in test [3]; 0.278 µM in test [4]; 0.935 µM in test [5]; 1.49 µM in test [6]. Also, the values for the GI50 in test [7] and in test [8] were 0.353 µM and 0.76 µM, respectively. Further, the TGI in test [1] is greater than 100 µM; in test [2], 4.48 µM; in test [3], 56 µM; in test [4], 2.08 µM; in test [5], 23.9 µM; in test [6], greater than 100 µM. For the same compound, the TGI in test [7] was greater than 100 µM; in test [8] it was 34 µM.

`CCn1c(-c2nonc2N)nc2c(C#CC(C)(C)O)nc(OC[C@H](N)c3ccccc3)cc21`: the GI50 is 2.6 µM in test [1]; 4.69 µM in test [2]; 3.56 µM in test [3]; 4.47 µM in test [4]; 3.94 µM in test [5]; 2.35 µM in test [6]. Besides, the values for the GI50 in test [7] and in test [8] were 3.67 µM and 2.69 µM, respectively. Besides, the TGI amounted to 5.78 µM in test [1]; 9.35 µM in test [2]; 6.84 µM in test [3]; 8.63 µM in test [4]; 7.47 µM in test [5]; 6.07 µM in test [6]. Further, the TGI in test [7] was determined as 7.38 µM; in test [8], 6.37 µM.

Take `COc1cc2nc(-c3ccc(Cl)cc3)cc(OCCCN3CCCCC3)c2cc1OC`: the GI50 in test [1] was 2.45 µM; in test [2] it was 1.74 µM; in test [3], 3.23 µM; in test [4] it was 3.28 µM; in test [5] it was 0.412 µM; in test [7], 0.946 µM. Also, in test [8], the GI50 is 3.73 µM. In addition, the TGI in test [1] is greater than 100 µM; in test [2], 4.53 µM; in test [3], greater than 100 µM; in test [4], greater than 100 µM; in test [5], 1.67 µM; in test [7] it was greater than 100 µM. In test [8], the TGI is greater than 100 µM.

Turning to `NC(=O)NC1C(c2ccccc2)=C1c1ccccc1`, the TGI amounted to 31.2 µM in test [1]; 61 µM in test [2]; 82.9 µM in test [3]; 39.4 µM in test [5]; 31.2 µM in test [6]; 35.4 µM in test [7]. The same compound had a total growth inhibition concentration (TGI) in test [8] of 53.7 µM.

`COc1ccc(C(C)=O)cc1N1C(=O)C2C(C1=O)C1(c3ccccc3)C(=O)C2(c2ccccc2)C(c2ccc(C)cc2)=C1c1ccc(C)cc1` (centres undefined): the GI50 in test [1], in test [2], in test [3], in test [4], in test [6] and in test [7] was greater than 100 µM throughout. In test [8], the GI50 is greater than 100 µM. The TGI in test [1], in test [2], in test [3], in test [4], in test [6] and in test [7] was greater than 100 µM in each case. Further, the concentration for total growth inhibition (TGI) in test [8] is greater than 100 µM.

As to `COc1cc(C#CC(=O)OC/C=C/c2ccc3c(c2)OCO3)cc(OC)c1OC`, the TGI in test [1] was greater than 100 µM; in test [2], 47.7 µM; in test [3], 63.3 µM; in test [5], 79.8 µM; in test [6], 44.5 µM; in test [7], greater than 100 µM. The compound also returned a TGI in test [8] of 60.8 µM.

With `C=C1CC[C@@H]2[C@](C)(COC(C)=O)[C@H](OC(C)=O)CC[C@@]2(C)[C@@H]1CC(Sc1ccccc1)C1=CCOC1=O` (some centres undefined), the GI50 was 1.34 µM in test [1]; 1.74 µM in test [2]; 1.14 µM in test [3]; 1.35 µM in test [4]; 1.47 µM in test [5]; 2.1 µM in test [7]. Also, the GI50 in test [8] was 2.83 µM. Also, the TGI in test [1] was found to be 2.84 µM; in test [2], 3.63 µM; in test [3], 2.37 µM; in test [4] it was 2.98 µM; in test [5], 3.69 µM; in test [7], 7.07 µM. The compound also came in with a TGI in test [8] of 5.54 µM.

Take `NC(=Nc1c([N+](=O)[O-])cnc2ccccc12)N1CCOCC1`: the TGI in test [1], in test [3], in test [4], in test [5], in test [6] and in test [7] was greater than 100 µM throughout. In test [8], this compound displayed a TGI greater than 100 µM.

As for `C=C1C(=O)O[C@@H]2C[C@@H]1CC/C(C)=C/CC/C(C)=C/CC[C@@]2(C)O`, the GI50 in test [1] was 13 µM; in test [3], 5.59 µM; in test [4], 6.36 µM; in test [5], 2.04 µM; in test [6] it was 22.3 µM. Also, the TGI in test [1] is 28.1 µM; in test [3] it was 18.7 µM; in test [4] it was 23.7 µM; in test [5], 8.37 µM; in test [6], 42.5 µM.

Take `CC(C)=CCNc1ncnc2c1ncn2C1OC(CO)C(O)C1O` (centres undefined): the GI50 in test [1] is 0.987 µM; in test [2] it was 226 µM; in test [3], 0.373 µM; in test [5] it was 2.85 µM; in test [6], 2.22 µM; in test [7] it was 1.36 µM. Besides, in test [8], the GI50 is 1.04 µM. For the same compound, the TGI in test [1] was greater than 526 µM; in test [2], greater than 1000 µM; in test [3], 1.1 µM; in test [5], greater than 766 µM; in test [6], 7.65 µM; in test [7], greater than 408 µM. Moreover, in test [8], the TGI was found to be 85.6 µM.

With `CC(C)c1ccc2c(c1)CC[C@@H]1[C@@](C)(C(=O)O)CCC[C@]21C`, the figures for the GI50 in test [1], in test [3] and in test [5] were 11.4 µM, 1.8 µM and 10.4 µM, respectively. Moreover, the TGI in test [1] is 23.5 µM; in test [3], 13.8 µM; in test [5], 22.1 µM.

For orientation: GI50 means the concentration at which growth is held to half of that of the control. For orientation: TGI means the concentration at which net growth stops.

Values taken from PubChem BioAssay (NCI).
